Measurements as given in the NIST ThermoML archive (doi:10.1016/j.jct.2013.01.017).
Numbers after ± are expanded uncertainties.

Settings: Liquid, Closed cell (Static) method

## C=CCC [1-butene]
302.9 K
  vapor or sublimation pressure: 343 ± 14 kPa
307.83 K
  vapor or sublimation pressure: 396 ± 14 kPa
312.96 K
  vapor or sublimation pressure: 456 ± 14 kPa
318.05 K
  vapor or sublimation pressure: 521 ± 14 kPa
322.94 K
  vapor or sublimation pressure: 593 ± 14 kPa
328.06 K
  vapor or sublimation pressure: 671 ± 14 kPa
332.97 K
  vapor or sublimation pressure: 759 ± 14 kPa
337.99 K
  vapor or sublimation pressure: 855 ± 14 kPa
342.98 K
  vapor or sublimation pressure: 957 ± 14 kPa
347.93 K
  vapor or sublimation pressure: 1069 ± 14 kPa
353.18 K
  vapor or sublimation pressure: 1197 ± 14 kPa

## FC(F)(F)C1(F)OC1(F)F (centres undefined) [2,2,3-trifluoro-3-(trifluoromethyl)oxirane]
302.95 K
  vapor or sublimation pressure: 786 ± 14 kPa
307.93 K
  vapor or sublimation pressure: 896 ± 14 kPa
312.93 K
  vapor or sublimation pressure: 1015 ± 14 kPa
317.86 K
  vapor or sublimation pressure: 1150 ± 14 kPa
322.92 K
  vapor or sublimation pressure: 1298 ± 14 kPa
327.88 K
  vapor or sublimation pressure: 1474 ± 14 kPa
332.87 K
  vapor or sublimation pressure: 1658 ± 14 kPa
337.87 K
  vapor or sublimation pressure: 1864 ± 15 kPa
342.88 K
  vapor or sublimation pressure: 2075 ± 15 kPa
347.85 K
  vapor or sublimation pressure: 2313 ± 15 kPa

## FCF [difluoromethane]
280.59 K
  vapor or sublimation pressure: 1022 ± 14 kPa
283.05 K
  vapor or sublimation pressure: 1109 ± 14 kPa
285.52 K
  vapor or sublimation pressure: 1195 ± 14 kPa
288.02 K
  vapor or sublimation pressure: 1280 ± 14 kPa
290.46 K
  vapor or sublimation pressure: 1364 ± 14 kPa
293.02 K
  vapor or sublimation pressure: 1474 ± 14 kPa
295.49 K
  vapor or sublimation pressure: 1578 ± 14 kPa
298.01 K
  vapor or sublimation pressure: 1684 ± 14 kPa
300.48 K
  vapor or sublimation pressure: 1793 ± 15 kPa
302.94 K
  vapor or sublimation pressure: 1918 ± 15 kPa
305.46 K
  vapor or sublimation pressure: 2051 ± 15 kPa
307.91 K
  vapor or sublimation pressure: 2179 ± 15 kPa
310.48 K
  vapor or sublimation pressure: 2318 ± 15 kPa
312.9 K
  vapor or sublimation pressure: 2459 ± 15 kPa
315.43 K
  vapor or sublimation pressure: 2614 ± 15 kPa
317.89 K
  vapor or sublimation pressure: 2772 ± 15 kPa
320.41 K
  vapor or sublimation pressure: 2948 ± 15 kPa
322.92 K
  vapor or sublimation pressure: 3120 ± 15 kPa
325.42 K
  vapor or sublimation pressure: 3303 ± 15 kPa
327.9 K
  vapor or sublimation pressure: 3498 ± 16 kPa
330.35 K
  vapor or sublimation pressure: 3694 ± 16 kPa
332.91 K
  vapor or sublimation pressure: 3910 ± 16 kPa
335.4 K
  vapor or sublimation pressure: 4138 ± 16 kPa
337.93 K
  vapor or sublimation pressure: 4370 ± 16 kPa
340.43 K
  vapor or sublimation pressure: 4602 ± 17 kPa
342.88 K
  vapor or sublimation pressure: 4854 ± 17 kPa
345.4 K
  vapor or sublimation pressure: 5117 ± 17 kPa
347.89 K
  vapor or sublimation pressure: 5392 ± 17 kPa
